row,SMILES,melting point [°C]
1,C[C@@H](CSc1nc2ccccc2cc1-c1ccccc1)NC(=O)OC(C)(C)C,86 to 87
2,COP(=O)(Cc1ccc2ccccc2c1)OC,80 to 81
3,CCN(CC)Cc1cnc2c(C)c(NC(=O)c3ccc(-c4ccc(F)cc4)cc3)ccc2c1,155 to 156
4,CS(=O)(=O)c1ccc(Oc2ccc([N+](=O)[O-])c(OCc3ccccc3)c2)cc1,142 to 143
5,CC(C)(CC(O)(C(=O)Nc1ccc2c(c1Br)COC2=O)C(F)(F)F)c1ccccc1 (stereo not drawn),187 to 194
6,CCOC(=O)CNC(=O)c1cc(F)c(F)cc1N,147
7,COc1ccc(CN2C(=O)C3(COc4cc(F)c(C#N)cc43)c3ccccc32)cc1 (stereo not drawn),142 to 143
8,CC(C)c1cccc(C(C)C)c1NC(=O)C(Cc1ccccc1)NCc1ccccc1 (stereo not drawn),120 to 124
9,Oc1ccc(N=C2SCCS2)cc1,204 to 208
10,Cc1ccc(Cc2cnc(NCCCNc3ncc(Br)cc3C)[nH]c2=O)cn1,48 to 51
11,COc1cc2c(cc1OC)C(CSc1nnnn1C)NCC2 (stereo not drawn),96 to 99
12,CCOC(=O)c1cncc(C(=O)OCC)c1,42 to 44
13,COc1ccc2[nH]c(S(=O)Cc3cc(N4CCCCC4)ncn3)nc2c1 (stereo not drawn),98 to 101
14,CCCCCCCN(CCO)c1cccc(O)c1,45 to 47
15,O=C(O)CCCNC(=O)c1ccccc1NC(=O)c1ccccc1O,173 to 174
16,O=C1Nc2ccccc2CN1C1CCN(Cc2ccccc2)CC1,204 to 206
17,CC[C@H](C1CC1)n1cc(Cl)nc(N2CCc3cc(Cl)cc(Cl)c32)c1=O,157 to 159
18,N#Cc1cccnc1N1CCN(CC(=O)Nc2cccc(Cl)c2)CC1,108 to 109
19,CC(C)(C)CCNC(=O)NCCCl,84
20,O=C(O)C(CCCCCc1ccc(Cl)cc1)S(=O)(=O)c1cccc(Cl)c1 (stereo not drawn),104 to 106
21,CCOC(=O)C(C)=C(CC)NC(=O)Nc1cc(C(=O)OC(C)C)c(Cl)cc1F,132 to 133
22,Cc1nc2c(Cl)cc(F)c([N+](=O)[O-])c2s1,130 to 132

row,SMILES,melting point [°C]
1,NS(=O)(=O)c1ccc(-c2c(-c3ccccc3)noc2COCC(F)(F)C(F)(F)C(F)(F)CO)cc1,50 to 51
2,COc1ccc(-c2nnc3c4ccccc4c(Nc4ccc(NC(=O)c5ccccn5)cc4)nn23)cc1,301 to 305
3,Cc1[nH]c2cccc3c2c1CC1C3CC(N)CN1C (stereo not drawn),240
4,CCOC(=O)/C=C/C=C/c1ccc(OC(C)C)cc1,64 to 65
5,COc1cc(Nc2c(C#N)cnc3cc(-c4ccc(CN5CCCCC5)s4)ccc23)c(Cl)cc1Cl,155 to 160
6,Cc1ccccc1C(=O)P1(=O)Oc2ccccc2-c2ccccc21 (stereo not drawn),102 to 104
7,COC(=O)CCCC(=O)N(CCc1c[nH]c2ccccc12)Cc1ccccc1,107 to 108
8,Cc1cccc(-n2nc(C)cc2-c2cc[nH]c(=O)c2)c1,182 to 183
9,COc1ccc(C=CC(=O)C=Cc2ccc(OC)cc2OC)c(OC)c1,138 to 140
10,CC#CCCn1ncc2c(N)c3c(nc21)CN(CCCC)C3=O,171 to 172
11,O=C(c1cccs1)c1cnn2c(-c3cccc(-c4nnn(CCN5CCCCC5)n4)c3)ccnc12,117
12,Nn1c(C2CC2)n[nH]c1=O,183
13,O[C@H](COc1cccc2[nH]ccc12)CN1CC=C(c2c[nH]c3cc(Cl)ccc23)CC1,200 to 202
14,CSc1ccc(-n2cnc3ccc(-c4nnc(C)o4)cc32)cc1,202 to 204
15,C(=Cc1cc(OCc2ccccc2)cc(OCc2ccccc2)c1)c1ccc(OCc2ccccc2)cc1,156 to 158
16,CS(=O)(=O)c1ccc(Oc2ccc(Oc3ccccc3)cc2)nc1,136 to 138
17,COc1cc2oc(=O)c3c(c2cc1OC)CCN(Cc1ccc(Cl)cc1)C3,173 to 175
18,O=C(Nc1cccnc1)N1CCC(=C2c3ccc(Cl)cc3C=Cc3cccnc32)CC1,95.9 to 97.6
19,CCCCCCNC(=O)c1cccc2c1C1(COc3cc4c(cc31)OCCO4)C(=O)N2C (stereo not drawn),172 to 173
20,CC1(C)Cc2cccc(Oc3c(Cl)cc([N+](=O)[O-])cc3Cl)c2O1,105 to 110
21,Cc1ncccc1Cn1c(CO)nc(C(C)C)c1Sc1cc(Cl)cc(Cl)c1,127

# Now from value to compound:
row,melting point [°C],SMILES
1,205 to 208,CN(C)C(=O)c1ccc(N)cc1S(=O)(=O)NC(C)(C)C
2,152 to 153,CCCN1C(=O)C(NC(=O)C(N)Cc2ccccc2)N=C(N2CCN(C)CC2)c2ccccc21 (stereo not drawn)
3,90 to 92,O=C1C[C@@H]2CCC(c3ccccc3)=C[C@@H]2O1 (relative stereo)
4,188 to 190,CC(=O)N1N=C(C=Cc2ccc([N+](=O)[O-])cc2)c2cc3c(cc2CC1C)OCO3 (stereo not drawn)
5,163 to 165,O=C1CCN2CC3c4ccccc4CCc4cccc(c43)C2C1 (stereo not drawn)
6,131 to 132,COC1CN(c2ccc(N3C[C@H](CO)OC3=O)cc2F)C1
7,64 to 65,C=CCc1cc(C(C)=O)c(O)cc1OCCCCCC(=O)OC
8,249 to 251,COc1ccc2[nH]c(=O)[nH]c2c1
9,152 to 155,CCOC(=O)c1cc(CC)sc1Nc1ccc(N)cc1N
10,158,CC(c1ccc(NC=O)c([N+](=O)[O-])c1)n1ccnc1 (stereo not drawn)
11,94 to 97,COC(=O)CCCC(C)(C)c1ccc(O)c(C(C)=O)c1O
12,77 to 78,CC(C)NCC(O)COc1ccc(CCO)cc1 (stereo not drawn)
13,110 to 130,O=C(O)C1CCC(O)CC1 (stereo not drawn)
14,229 to 230,CC(C)n1nc(-c2c(-c3ccccc3)nn3cccc(O)c23)ccc1=O
15,191 to 196,CC(=O)O[C@H]1C[C@@H](n2ccc(=O)cc2)[C@H](O)[C@@H]1O (racemic)
16,143 to 148,CC(=O)OC1CSC(Sc2ccc(C(=O)C(F)(F)F)cc2)C(OC(C)=O)C1OC(C)=O (stereo not drawn)
17,70 to 78,COC(=O)CNc1ccccc1C#N
18,131 to 135,CC(=O)SCC(Cc1ccc(-c2ccccc2)cc1)C(=O)N[C@@H](CSCc1ccc(C)cc1)C(=O)O (stereo partly drawn)
19,> 320,CCOC(=O)c1oc2cc(O)ccc2c(=O)c1C(N)=O
20,126 to 127,COCOc1ccc(C=CC(=O)c2c(OC)cc(OC)c(CC=C(C)C)c2O)cc1OC
21,220 to 222,CCOC(=O)c1cnc2c3cc(NC(=O)C(CC)CC)ccc3ncn2c1=O
22,106 to 107,CCOC(=O)CCCCC(c1ccc(C)s1)N(O)C(N)=O (stereo not drawn)
23,127 to 128,COC(=O)CNC(=O)c1ccc(-c2ccccc2)cc1
24,192 to 195,NC(CN1C(=O)c2ccccc2C1=O)=NO
25,120 to 122,COc1cccc2c1CCC(C#N)C2=O (stereo not drawn)
26,84 to 85,CCOC(=O)C(=O)CC(=O)/C=C/c1ccc(Cl)cc1F
27,> 300,COc1ccc2c(c1)Nc1[nH]cnc(=O)c1C2
28,294 to 296,O=c1[nH]c2ncc(-c3ccc(-n4cccn4)cc3)nc2n1CC1CCOCC1
29,173 to 175,CC(=O)NCC1CN(c2ccc(N3CCN(C4N=NC(=O)S4)CC3)c(F)c2)C(=O)O1 (stereo not drawn)
30,192 to 194,CC(=O)Nc1ccc(F)cc1OCCOc1ccc([N+](=O)[O-])cc1F

# From a melting point compilation (Tetko et al.; mined from patent text by program, amines drawn as free bases though some values may be those of a salt)
